Experimental data taken from US7307063B2, “Melanocortin metallopeptides for treatment of sexual dysfunction” (Palatin Technologies, Inc., priority 2001, dated 2007).
Non-standard residues stand in square brackets, D forms with d. No end group written: not given here. dDip = N[C@@H](C(=O)O)C(c1ccccc1)c1ccccc1; Nle = CCCC[C@H](N)C(=O)O

Key:
MC1-R = target: T1, MC1-R (Mus musculus, UniProt Q01727); assay: Competitive binding assay: inhibition of 125I-NDP-α-MSH binding to membranes from B16-F10 mouse melanoma cells
T1 construct: MC1-R membranes were isolated from B16—F10 mouse melanoma cells; endogenous in cells; host or cells: B16-F10 mouse melanoma cells
Method in brief: (§1)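 Test metallopeptides, complexed to rhenium, compete with 125I-NDP-α-MSH for receptor sites on mouse B16-F10 or human-receptor HEK-293 membranes. Specific binding is the cpm difference without and with 1 μM α-MSH, and values are percent inhibition.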

MC4-R [1] = target: T2, MC4-R (Homo sapiens, UniProt P32245); assay: Competitive binding assay: inhibition of 125I-NDP-α-MSH binding to HEK-293 membranes with cloned human receptor subtype 4
T2 construct: expressed in transfected cells; host or cells: HEK-293
Method in brief: as §1

MC4-R [2] = target: T2, MC4-R; assay: Functional activity assay: intracellular cAMP in HEK-293 cells expressing MC4-R; type: cell-based; details: Re-complexed peptide
Procedure: Rhenium-complexed metallopeptides were prepared, with functional evaluation of peptides at MC1-R and MC4-R performed by measuring the accumulation of intracellular cAMP in HEK-293 cells expressing MC4-R or B16-F10 mouse melanoma cells expressing MC1-R. Antagonistic activity was determined by measuring the inhibition of α-MSH-induced cAMP levels following exposure to peptide. Cells, suspended in Earle's Balanced Salt Solution containing 10 mM HEPES, pH 7.5, 5 mM MgCl2, 1 mM glutamine, 0.1% albumin and 0.6 mM 3-isobutyl-1-methyl-xanthine, a phosphodiesterase inhibitor, were plated in 96 well plates at a density of 0.5×10^5 cells per well. Cells were incubated with the test peptides in the presence or absence of α-MSH for 1 hour at 37° C. cAMP levels were measured by EIA (Amersham) in the cell lysates. Data analysis and EC50 values were determined using nonlinear regression analysis with Prism Graph-Pad software.

Male Sprague-Dawley rats = assay: Penile erection behavior dose response animal studies; type: in vivo, rat; details: IV 50 μg/kg; 30 min observation
Procedure: For behavioral experiments test solutions of rhenium-complexed metallopeptides were freshly prepared in DMSO and diluted in saline. Male Sprague-Dawley rats (Taconic) weighing 200-250 g were kept on a 12 hour on/off light cycle with food and water ad libitum. All behavioral studies were performed between 10 a.m. and 5 p.m. Groups of 3-10 rats were treated with the rhenium-complexed metallopeptides at a variety of doses via intravenous (IV) injection. In a second experimental paradigm, rats were treated a selected compound intranasally (IN) using a micropipet to deliver 25 μl of solution into one nostril. Immediately after treatment, rats were placed into individual Lucite cages (27 cm long, 16 cm wide and 25 cm high) for behavioral observation.

hMC5-R = target: T3, hMC5-R (Homo sapiens, UniProt P33032); assay: Competitive binding assay: inhibition of 125I-NDP-α-MSH binding to HEK-293 membranes with cloned human receptor subtype 5; details: Table 6; 1 μM; mean of triplicate
T3 construct: expressed in transfected cells; host or cells: HEK-293
Method in brief: as §1

hMC2-R = target: T4, hMC2-R (Homo sapiens, UniProt P41968); assay: Competitive binding assay of additional compounds, Table 6 hMC2-R; details: 1 μM, mean of triplicate
T4 construct: expressed in transfected cells; host or cells: HEK-293

[3] = Table 1, 1 μM Re-complexed peptide
[4] = Table 6, 1 μM, mean of triplicate

T1 sequence (Q01727 whole entry): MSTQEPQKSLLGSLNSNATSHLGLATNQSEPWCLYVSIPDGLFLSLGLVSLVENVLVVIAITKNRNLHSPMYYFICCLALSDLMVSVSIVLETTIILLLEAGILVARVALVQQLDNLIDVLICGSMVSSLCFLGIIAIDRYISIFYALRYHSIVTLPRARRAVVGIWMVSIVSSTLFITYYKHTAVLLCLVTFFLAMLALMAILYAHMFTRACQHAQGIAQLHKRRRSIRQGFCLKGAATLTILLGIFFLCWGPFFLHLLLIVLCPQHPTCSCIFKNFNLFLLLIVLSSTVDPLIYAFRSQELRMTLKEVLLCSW
T3 sequence (P33032 whole entry): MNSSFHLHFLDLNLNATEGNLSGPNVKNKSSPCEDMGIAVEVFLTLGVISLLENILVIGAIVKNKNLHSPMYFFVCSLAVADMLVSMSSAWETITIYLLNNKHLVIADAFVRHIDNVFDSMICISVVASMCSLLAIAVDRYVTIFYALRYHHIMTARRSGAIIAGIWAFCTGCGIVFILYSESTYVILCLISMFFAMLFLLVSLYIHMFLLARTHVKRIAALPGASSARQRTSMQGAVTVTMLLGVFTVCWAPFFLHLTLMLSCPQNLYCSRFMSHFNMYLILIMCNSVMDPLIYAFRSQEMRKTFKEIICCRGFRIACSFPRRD
T4 sequence (P41968 whole entry): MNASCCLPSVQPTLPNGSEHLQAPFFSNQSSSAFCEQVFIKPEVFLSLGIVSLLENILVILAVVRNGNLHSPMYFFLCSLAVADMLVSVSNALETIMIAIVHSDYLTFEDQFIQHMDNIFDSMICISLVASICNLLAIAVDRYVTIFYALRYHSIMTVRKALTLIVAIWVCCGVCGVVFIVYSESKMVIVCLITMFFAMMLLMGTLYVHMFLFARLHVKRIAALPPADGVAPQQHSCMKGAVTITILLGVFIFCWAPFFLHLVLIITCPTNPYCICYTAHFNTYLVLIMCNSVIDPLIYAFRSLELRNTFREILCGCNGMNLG
T2 sequence (P32245 whole entry): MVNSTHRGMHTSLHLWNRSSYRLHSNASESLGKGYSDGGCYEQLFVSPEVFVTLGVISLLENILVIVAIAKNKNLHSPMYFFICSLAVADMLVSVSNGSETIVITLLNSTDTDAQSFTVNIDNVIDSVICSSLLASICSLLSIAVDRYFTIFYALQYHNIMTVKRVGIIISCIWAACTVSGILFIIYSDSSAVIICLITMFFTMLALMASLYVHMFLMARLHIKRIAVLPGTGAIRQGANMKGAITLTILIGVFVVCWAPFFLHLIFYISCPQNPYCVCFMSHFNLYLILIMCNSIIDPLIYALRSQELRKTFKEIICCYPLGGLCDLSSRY

% Inhibition of Binding MC1-R (MC1-R; [3]) | % Inhibition of Binding hMC4-R (MC4-R [1]; [3]) | Functional activity at MC4-R (cAMP accumulation; inhibition of α-MSH-induced cAMP) (MC4-R [2]) | % Inhibition of Binding MC1-R (MC1-R; [4]) | % Inhibition of Binding hMC4-R (MC4-R [1]; [4]) | % Inhibition of Binding hMC5-R (hMC5-R) | % Inhibition of Binding hMC2-R (hMC2-R) | Substance | Mean Penile Erections/Rat (Male Sprague-Dawley rats)
101% | 100% | MC4-R agonists | – | – | – | – | Ac-Nle-Ala-His-D-Phe(3′-Cl)-Arg-Trp-Cys-Trp-NH2 | 0.5
– | – | – | 23% | 34% | 8% | 0% | [dDip][dF]RWC-NH2 | –
– | – | – | 12% | 11% | 0% | 0% | Idc-D-Phe-Arg-Trp-Cys-NH2 | –
– | – | – | 81% | 18% | 87% | 4% | Ac-[Nle]AL[dF]RCW-NH2 | –
– | – | – | 28% | 22% | 2% | 0% | Allo-Thr-D-Phe-Arg-Trp-Cys-NH2 | –
– | – | – | 30% | 11% | 7% | 8% | Ac-[Nle]AT[dF]RCW-NH2 | –
– | – | – | 85% | 88% | 100% | 85% | Hept-Ser(Bzl)-D-Phe(4′-Cl)-Arg-Trp-Cys-NH2 | –
– | – | – | 22% | 8% | 48% | 0% | D-Nal 1′-D-Phe-Arg-Cys-Trp-NH2 | –
– | – | – | 8% | 1% | 2% | 6% | 3′-Bromo phenyl acetyl-Arg-Thr-D-Phe(4′-Cl)-Cys-NH2 | –
